pIC50: −log10 of the molar value.
Columns and labels:
Type in all cases: cell-based
[1] = target: T1, Solute carrier family 22 member 2 (Homo sapiens, UniProt O15244); test: Inhibition of human OCT2-mediated ASP+ uptake expressed in HEK293 cells after 3 mins by fluorescence assay
T1 sequence (O15244 whole entry): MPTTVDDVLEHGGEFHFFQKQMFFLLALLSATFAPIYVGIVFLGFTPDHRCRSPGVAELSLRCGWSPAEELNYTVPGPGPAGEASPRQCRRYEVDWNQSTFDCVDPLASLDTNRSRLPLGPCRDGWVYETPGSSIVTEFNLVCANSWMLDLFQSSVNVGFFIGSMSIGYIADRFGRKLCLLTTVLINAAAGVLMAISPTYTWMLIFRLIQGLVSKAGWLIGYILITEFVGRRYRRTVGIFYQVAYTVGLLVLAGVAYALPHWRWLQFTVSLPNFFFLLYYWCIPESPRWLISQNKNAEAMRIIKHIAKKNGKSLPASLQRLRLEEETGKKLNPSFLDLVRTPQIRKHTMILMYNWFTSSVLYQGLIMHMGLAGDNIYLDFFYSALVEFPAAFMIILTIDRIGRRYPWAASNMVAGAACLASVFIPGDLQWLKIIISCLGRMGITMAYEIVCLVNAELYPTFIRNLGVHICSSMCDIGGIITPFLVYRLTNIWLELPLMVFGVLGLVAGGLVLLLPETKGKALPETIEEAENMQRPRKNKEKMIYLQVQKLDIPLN

[2] = target: T2, Multidrug and toxin extrusion protein 2 (Homo sapiens, UniProt Q86VL8); test: Inhibition of human MATE2K-mediated ASP+ uptake expressed in HEK293 cells after 1.5 mins by fluorescence assay
T2 sequence (Q86VL8 whole entry): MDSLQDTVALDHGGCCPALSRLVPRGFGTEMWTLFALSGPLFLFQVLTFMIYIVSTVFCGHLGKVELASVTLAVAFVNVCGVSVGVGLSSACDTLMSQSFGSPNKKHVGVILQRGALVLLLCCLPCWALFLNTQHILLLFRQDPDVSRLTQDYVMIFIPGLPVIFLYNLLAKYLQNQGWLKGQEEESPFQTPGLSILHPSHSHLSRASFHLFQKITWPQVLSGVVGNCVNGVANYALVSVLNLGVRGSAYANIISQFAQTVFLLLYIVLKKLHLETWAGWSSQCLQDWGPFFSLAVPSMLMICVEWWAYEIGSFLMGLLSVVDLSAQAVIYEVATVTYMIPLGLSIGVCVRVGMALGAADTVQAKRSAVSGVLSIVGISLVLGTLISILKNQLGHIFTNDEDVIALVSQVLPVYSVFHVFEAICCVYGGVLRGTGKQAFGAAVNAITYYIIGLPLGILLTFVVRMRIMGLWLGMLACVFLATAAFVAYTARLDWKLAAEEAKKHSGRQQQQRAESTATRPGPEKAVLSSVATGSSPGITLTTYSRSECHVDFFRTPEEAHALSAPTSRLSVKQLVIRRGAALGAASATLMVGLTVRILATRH

[3] = target: T3, Multidrug and toxin extrusion protein 1 (Homo sapiens, UniProt Q96FL8); test: (§1) Inhibition of human MATE1-mediated ASP+ uptake expressed in HEK293 cells at 20 uM after 1.5 mins by fluorescence assay; details: hek293, […], 20 µM
T3 sequence (Q96FL8 whole entry): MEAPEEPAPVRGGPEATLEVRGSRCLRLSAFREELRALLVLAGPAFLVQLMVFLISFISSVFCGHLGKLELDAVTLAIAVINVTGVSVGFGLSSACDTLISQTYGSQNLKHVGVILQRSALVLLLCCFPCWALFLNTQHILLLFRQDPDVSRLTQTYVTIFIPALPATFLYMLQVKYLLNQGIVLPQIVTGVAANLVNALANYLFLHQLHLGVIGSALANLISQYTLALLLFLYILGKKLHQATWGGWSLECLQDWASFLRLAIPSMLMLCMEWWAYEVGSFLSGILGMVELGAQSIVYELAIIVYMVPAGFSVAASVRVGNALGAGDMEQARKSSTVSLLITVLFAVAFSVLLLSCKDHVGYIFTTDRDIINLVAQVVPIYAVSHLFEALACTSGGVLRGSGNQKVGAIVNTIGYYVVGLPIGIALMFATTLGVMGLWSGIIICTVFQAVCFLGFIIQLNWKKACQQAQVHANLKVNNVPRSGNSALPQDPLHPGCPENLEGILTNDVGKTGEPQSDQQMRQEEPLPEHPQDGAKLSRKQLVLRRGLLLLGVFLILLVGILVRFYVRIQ

[4] = target: T3, Multidrug and toxin extrusion protein 1; test: Inhibition of human MATE1-mediated ASP+ uptake expressed in HEK293 cells after 1.5 mins by fluorescence assay
[5] = target: T4, MATE1 (multidrug and toxin extrusion protein 1) (Homo sapiens, UniProt Q96FL8); test: as §1; details: HEK293 cells expressing human MATE1, probe ASP+
T4 sequence (Q96FL8 whole entry): T3 sequence (Q96FL8 whole entry)

Row | SMILES | pIC50 [1] | pIC50 [2] | INH [3] [%] | pIC50 [4] | inhibition at […], 20 µM [5] [%]
1 | O=c1[nH]c2ccccc2n1CCCN1CCC(n2c(=O)[nH]c3cc(Cl)ccc32)CC1 [DOMPERIDONE] | 5.10 | 4.83 | 66 | – | –
2 | CC(N)C12CC3CC(CC(C3)C1)C2 (stereo not given) [RIMANTADINE] | 5.36 | 3.54 | 74 | 5.14 | –
3 | COc1cc(C(=O)NS(=O)(=O)c2ccccc2C)ccc1Cc1cn(C)c2ccc(NC(=O)OC3CCCC3)cc12 [ZAFIRLUKAST] | 5.01 | 5.12 | 52 | – | –
4 | CC[C@@]1(O)C(=O)OCc2c1cc1n(c2=O)Cc2cc3c(CN(C)C)c(O)ccc3nc2-1 [TOPOTECAN] | 4.21 | 5.07 | 50 | 5.89 | –
5 | Cc1cc(C2CCCCC2)n(O)c(=O)c1 [CICLOPIROX] | – | – | – | < 3.30 | 52
6 | C=C[C@H]1C[N@@]2CC[C@H]1C[C@@H]2[C@@H](O)c1ccnc2ccc(OC)cc12 [QUINIDINE] | – | – | – | – | 28
7 | CCCCc1nc(Cl)c(CO)n1Cc1ccc(-c2ccccc2-c2nn[nH]n2)cc1 [LOSARTAN] | – | – | – | – | 12
8 | CN1C2CCCC1CC(NC(=O)c1nn(C)c3ccccc13)C2 (stereo not given) [GRANISETRON] | 5.37 | 3.51 | 67 | – | –
9 | CNC(=C[N+](=O)[O-])NCCSCc1ccc(CN(C)C)o1 [RANITIDINE] | – | – | – | – | 29
10 | CN(C)C(=O)COC(=O)Cc1ccc(OC(=O)c2ccc(NC(=N)N)cc2)cc1 [CAMOSTAT] | 4.78 | 4.90 | 77 | – | –
11 | COc1ccc(CCN2CCC(Nc3nc4ccccc4n3Cc3ccc(F)cc3)CC2)cc1 [ASTEMIZOLE] | – | – | – | 4.58 | 34
12 | CNS(=O)(=O)Cc1ccc2[nH]cc(CCN(C)C)c2c1 | – | – | – | 5.17 | 7
13 | CCOc1ccc(NC(C)=O)cc1 [PHENACETIN] | – | – | – | – | 53
14 | O=c1[nH]c2ccccc2n1C1CCN(CCCC(c2ccc(F)cc2)c2ccc(F)cc2)CC1 [PIMOZIDE] | 4.47 | < 3.30 | – | – | –
15 | CC(=O)S[C@@H]1CC2=CC(=O)CC[C@]2(C)[C@H]2CC[C@@]3(C)[C@@H](CC[C@@]34CCC(=O)O4)[C@H]12 [SPIRONOLACTONE] | – | – | – | 4.73 | 27
16 | COc1ccc2c(c1)c(CC(=O)O)c(C)n2C(=O)c1ccc(Cl)cc1 [INDOMETHACIN] | – | – | – | – | 6
17 | Clc1cccc(Cl)c1N=C1NCCN1 [CLONIDINE] | – | – | – | 4.48 | 1
18 | CCCc1nc2c(C)cc(-c3nc4ccccc4n3C)cc2n1Cc1ccc(-c2ccccc2C(=O)O)cc1 | – | – | – | 4.75 | 38

Row | SMILES | pIC50 [1] | pIC50 [2] | INH [3] [%] | pIC50 [4] | inhibition at […], 20 µM [5] [%]
19 | C[C@@H]1C[C@H]2[C@@H]3CCC4=CC(=O)C=C[C@]4(C)[C@@]3(F)[C@@H](O)C[C@]2(C)[C@@]1(O)C(=O)CO [DEXAMETHASONE] | – | – | – | < 3.30 | 30
20 | C#C[C@]1(O)CC[C@H]2[C@@H]3CCc4cc(O)ccc4[C@H]3CC[C@@]21C [ETHINYL ESTRADIOL] | 5.66 | 4.69 | 60 | 4.68 | –
21 | COc1cc2nc(N3CCN(C(=O)c4ccco4)CC3)nc(N)c2cc1OC [PRAZOSIN] | – | 4.42 | – | – | –
22 | CCCCC1=NC2(CCCC2)C(=O)N1Cc1ccc(-c2ccccc2-c2nnn[nH]2)cc1 [IRBESARTAN] | – | – | – | – | 15
23 | Nc1ncn([C@@H]2O[C@H](CO)[C@@H](O)[C@H]2O)c(=O)n1 [AZACITIDINE] | – | – | – | – | 50
24 | CCOC(=O)[C@H](CCc1ccccc1)N[C@@H](C)C(=O)N1CCC[C@H]1C(=O)O | – | – | – | < 3.30 | 23
25 | O=C(O)c1cccnc1 [NIACIN] | – | – | – | – | 54
26 | NC1=NCC2c3ccccc3Cc3ccccc3N12 (stereo not given) [EPINASTINE] | 5.37 | 4.53 | 97 | 5.96 | –
27 | O=C1CC2(CCCC2)CC(=O)N1CCCCN1CCN(c2ncccn2)CC1 [BUSPIRONE] | 4.92 | 4.34 | – | – | –
28 | COc1cc2c3cc1Oc1cc(ccc1O)C[C@@H]1c4c(cc(OC)c(O)c4Oc4ccc(cc4)C[C@@H]3N(C)CC2)CC[N+]1(C)C [TUBOCURARINE] | 4.10 | 4.26 | 95 | 5.03 | –
29 | CCOC(=O)c1ccc(OC(=O)CCCCCNC(=N)N)cc1 [GABEXATE] | 6.05 | 4.97 | – | 6.30 | 96
30 | c1ccc2[nH]c(-c3cscn3)nc2c1 [THIABENDAZOLE] | – | – | – | < 3.30 | 55
31 | CC[C@H]1OC(=O)[C@H](C)[C@@H](O[C@H]2C[C@@](C)(OC)[C@@H](O)[C@H](C)O2)[C@H](C)[C@@H](O[C@@H]2O[C@H](C)C[C@H](N(C)C)[C@H]2O)[C@](C)(O)C[C@@H](C)C(=O)[C@H](C)[C@@H](O)[C@]1(C)O [ERYTHROMYCIN] | – | – | – | < 3.30 | –
32 | C[C@]12CCC(=O)C=C1CC[C@@H]1[C@@H]2C(=O)C[C@@]2(C)[C@H]1CC[C@]2(O)C(=O)CO [CORTISONE] | – | – | – | – | 10
33 | CN1C[C@H](C(=O)N[C@]2(C)O[C@@]3(O)[C@@H]4CCCN4C(=O)[C@H](Cc4ccccc4)N3C2=O)C[C@@H]2c3cccc4[nH]cc(c34)C[C@H]21 [DIHYDROERGOTAMINE] | 4.30 | 4.90 | 72 | 5.55 | –
34 | [H]/N=C(/N)c1ccc(NCc2nc3cc(C(=O)N(CCC(=O)O)c4ccccn4)ccc3n2C)cc1 [DABIGATRAN] | 5.33 | 4.60 | – | 5.09 | –
35 | CC(=O)O[C@H]1C[C@@H]2CC[C@@H]3[C@H](CC[C@@]4(C)[C@H]3C[C@H]([N+]3(C)CCCCC3)[C@@H]4OC(C)=O)[C@@]2(C)C[C@@H]1N1CCCCC1.[Br-] [VECURONIUM BROMIDE] | 5.46 | 4.60 | 85 | 5.72 | –

Source: ChEMBL document CHEMBL2311273, “Discovery of potent, selective multidrug and toxin extrusion transporter 1 (MATE1, SLC47A1) inhibitors through prescription drug profiling and computational modeling” (J Med Chem, 2013)
